Laboratory results: paper PMC10054428, “Turning a Tumor Microenvironment Pitfall into Opportunity: Discovery of Benzamidoxime as PD-L1 Ligand with pH-Dependent Potency” (International Journal of Molecular Sciences, 2023)
“Also recorded” adds a separate entry of the source. Where two headings read alike, the source gives them in different places.

How the values were obtained:
[1] = biological target: T1, NT650/PD-L1 (recombinant human PD-L1) (Homo sapiens, UniProt Q9NZQ7); assay: Single-point MST binding assay; conditions: 250 µM compound; for Single-point binding result (in words): NT650/PD-L1; for Binder (single-point binder flag): 50 nM NT650/PD-L1, pH 7.2, F-norm outside vehicle ± 3 SD
T1 construct: purchased Abcam ab167713
Protocol: Putative hit compounds were defined as those molecules inducing a thermophoretic movement of the ligand-bound complex with a fluorescent signal (F-norm) outside the signal value and three-fold standard deviations of the negative control (vehicle, DMSO).
(§1) Biophysical Binding Assays. A lyophilized form of the recombinant human PD-L1 protein was purchased from Abcam (ab167713, Abcam, Cambridge, UK) and reconstituted by adding sterile deionized water to reach a theoretical concentration of 400 µg/mL in PBS (PBS7.2: 50 mM KH2PO4, 0.05% Tween 20, pH 7.2). […] Then, the protein was labeled with a fluorescent dye using the Protein Labelling Kit RED-NHS (NT650, NanoTemper Technologies GmbH, Munich, Germany) and a 1:4 ratio (protein:dye). […] The unbounded fluorophore was removed by a size-exclusion chromatography column using a PBS7.2 storage buffer (pH 7.2). The removal of the unbounded fluorophore was also repeated by conditioning the size-exclusion chromatography column with a phosphate buffer at pH 6.2 (PBS6.2: 50 mM KH2PO4, 0.05% Tween 20, pH 6.2).
(§2) Ligand binding experiments were performed using MST (Monolith NT.115; NanoTemper Technologies GmbH, Munich, Germany). This method is based on the principle of thermophoresis, which is the movement of a biomolecular complex in a temperature gradient depending on the size, charge, and hydration shell that typically change upon ligand/target interaction. The selected 10 highly soluble fragments were purchased from Life Chemicals. […] A vehicle of DMSO 2% was used as negative control.
Single-point binding assays were carried out, recording the MST signal for each capillary at medium laser power and 40% LED power, choosing the manual mode with a 19/20 s hot region. Each experiment was repeated three times employing premium-coated capillaries.

[2] = biological target: T1, NT650/PD-L1 (recombinant human PD-L1); assay: Full-point MST binding assay (Kd) at pH 7.2 and 6.2; conditions: for BEI (pH 6.2) / BEI: BEI = pKd/MW (kDa); for BEI: pH 7.2; for delta increment of BEI: pH 6.2 versus pH 7.2
Protocol: These compounds were next tested in full ligand binding assays against NT650/PD-L1 at pH 7.2, using the scalar concentration of each compound to obtain binding curves and the relative dissociation constants (Kd).
as §1, §2
Each compound was tested starting the 1:1 dilution from a 1 mM concentration in MST buffer (PBS7.2 and PBS6.2) with 2% DMSO. An amount of 10 µL solution of 100 nM NT650/PD-L1 was added to each compound dilution and mixed to halve the final concentration of each component, including 2% DMSO, and reach a reaction volume of 20 µL. After incubating the mixtures for 30 min, samples were loaded into 16 premium-coated capillary tubes for MST analysis. MST signals were recorded for each capillary at medium laser power and 40% LED power, choosing the manual mode with 19/20s hot region.
The Binding Efficiency Index (BEI) was calculated using the following equation [Equation (1)] [43]:BEI = pKd/MW (kDa)(1)
(§3) In all binding experiments and ligand binding displacement assays, raw data were analyzed using MO.Affinity analysis software v2.3 (NanoTemper Technologies GmbH, Munich, Germany). Kd values were extrapolated by compound concentration-dependent changes of the NT650/PD-L1 F-norm signals using MO.Affinity analysis software v2.3.
(§4) MST experiments were carried out using a Monolith NT.115 instrument (NanoTemper Technologies GmbH, Munich, Germany).

[3] = pKa by potentiometric titration (SiriusT3); type: physicochemical; conditions: 25 °C, n.3
Description: The first value (pKa1) corresponds to the deprotonated state of the protonated oxime nitrogen atom, entailing the neutral form. The second value (pKa2) is associated to the deprotonation of the oxime hydroxyl group, providing the anionic form of the compound. The presence of electron-withdrawing and/or -donating groups on the benzene ring may affect these values, entailing different stabilities of the cationic, neutral, and anionic species at a given pH. Accordingly, we used a potentiometric titration method to determine the pKa values of VIS310 and its analogues (9, 16–20).
Table 3 reports the experimental pKa values of BMS-202 (5), VIS310 (9), and its analogues (16–20), as obtained using SiriusT3 instrument. […] Therefore, the very high pKa value corresponding to the deprotonation of the oxime hydroxyl group was not experimentally determined in the compounds. Conversely, one or two pKa values were obtained, depending on the presence of a phenol moiety in the benzamidoxime derivatives. […] This is more evident with the insertion of the para hydroxyl group in the compounds VIS1201 (17; pKa1 = 5.35), VIS1202 (18; pKa1 = 5.38), VIS1203 (19; pKa1 = 5.38), and VIS310 (9; pKa1 = 5.65). These latter compounds show also a second value of the acid dissociation constant (pKa2) that corresponds to the deprotonated state of the phenolic group, entailing the anionic form of the compound. […] At pH 7.2, the microspecies adopting a neutral form increases, whereas the cationic form decreases, and a minor part of the microspecies starts adopting an anionic form (Figures S2 and S3, supplementary material).
Physicochemical Property Evaluations. Acidic constants (calcpKa) of compounds were calculated using the calculator plugin Marvin (v20.11, 2021; ChemAxon, Budapest, Hungary).
Each experiment was performed by specifying the sample weight, number of expected pKa values, calculated pKa (calcpKa) values, titration mode, and number of titrations (n.3). In order to measure the pKa of a compound, a sample concentration of 1 mM was prepared and dissolved, adding methanol as the co-solvent. […] Titrations of compounds 16–20 were performed using a ratio of 45%, 40%, 35% methanol. The Yasuda–Shedlovsky method was chosen to extrapolate aqueous pKa values. The R^2 value was used to evaluate the validity of the assay with a co-solvent, and the results were considered acceptable with a R^2 value ≥ 0.9 (Table S3, supplementary material). The accuracy of the pKa assay was also evaluated using the buffer index profile of the analyte. Specifically, the buffering capacity signal of the analyte must be above the intrinsic buffering capacity of water in order to have an accurate potentiometric measurement. Results were analyzed using Sirius T3 software v1.1.3.

PD-1/PD-L1 complex = biological target: T2, PD-1/PD-L1 complex (Homo sapiens, UniProt Q9NZQ7); assay: Ligand binding displacement assay of PD-1/PD-L1 complex (MST); conditions: pH 6.2, 50 and 100 μM
T2 construct: purchased Abcam ab167713 (PD-L1)
Protocol: This study was carried out with MST.
Ligand binding displacement assays were carried out with MST. […] The reconstitution of the protein was done by adding sterile deionized water to achieve a final concentration of 1 mg/mL in PBS7.2. […] The protein was tested starting the 1:1 dilution from a 26 μM concentration in MST buffer (PBS6.2) with 2% DMSO. […] After incubating the mixtures for 40 min in the dark, samples were loaded into 16 premium-coated capillary tubes for MST analysis. MST signals were recorded for each capillary at medium laser power and 80% LED power, choosing the Default on Time (DoT) mode with 4/5s hot region.
as §3, §4

[4] = set-up: method as in PMID 25621618; conditions: UV/vis titration, cited from earlier work
[5] = pH 7.2, n.3, read-out: Kd ± c.v.
[6] = oxime nitrogen atom, methanol co-solvent, Yasuda–Shedlovsky extrapolation, read-out: pKa1
[7] = phenolic group (9, 17–19), secondary amine group (5), read-out: pKa2
[8] = pH 6.2, n.3, read-out: Kd ± c.v.

T1 sequence (Q9NZQ7 19-290): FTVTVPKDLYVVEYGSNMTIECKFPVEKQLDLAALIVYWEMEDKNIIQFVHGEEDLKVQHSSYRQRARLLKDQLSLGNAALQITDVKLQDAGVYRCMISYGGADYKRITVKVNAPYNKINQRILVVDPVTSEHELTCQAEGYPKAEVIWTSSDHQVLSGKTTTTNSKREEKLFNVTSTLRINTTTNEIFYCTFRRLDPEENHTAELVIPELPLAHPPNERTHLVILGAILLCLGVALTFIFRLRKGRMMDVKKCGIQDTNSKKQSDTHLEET
T2 sequence (Q9NZQ7 19-238 limits assumed, one chain of several): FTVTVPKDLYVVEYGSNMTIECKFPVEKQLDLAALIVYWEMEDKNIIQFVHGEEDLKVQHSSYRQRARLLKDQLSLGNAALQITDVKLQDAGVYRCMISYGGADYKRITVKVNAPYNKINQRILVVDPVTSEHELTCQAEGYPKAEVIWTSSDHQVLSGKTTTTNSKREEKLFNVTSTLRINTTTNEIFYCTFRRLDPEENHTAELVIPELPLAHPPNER

Kd [2, 5] [µM]	pKa [3, 6]	Kd [2, 8] [µM]	BEI (pH 6.2) [2]	SMILES	Single-point binding result (in words) [1]	also measured
> 250				[H]/N=C1\NC(=O)[C@H](CC(=O)Nc2cccc3ccccc23)S1 [VIS303]	hit compounds	
164	5.65 ± 0.01	47.8	24.0	Cc1cc(/C(N)=N/O)cc(C)c1O [VIS310]	hit compounds	pKa [3, 7]: 9.32 ± 0.02; BEI [2]: 21.0
> 250				Cc1ccc(Cn2c(S)nc3c2c(=O)n(C)c(=O)n3C)cc1 [VIS826]		
> 250				COC(=O)c1ccc(C)c2c1-c1ccccc1OC2 [VIS879]		
> 1000	5.26 ± 0.01	95.6 ± 20.6	24.5	Cc1cc(C)cc(C(=N)NO)c1 [VIS1200]		
> 1000	5.35 ± 0.12	45.2 ± 10.6	28.6	N=C(NO)c1ccc(O)cc1 [VIS1201]		pKa [3, 7]: 8.64 ± 0.01; Inhibition of PD-1/PD-L1 interaction (in words) (PD-1/PD-L1 complex): dose-dependently inhibits the PD-1/PD-L1 interaction; also recorded: dose-dependently inhibit the formation of the PD-1/PD-L1 complex; delta increment of BEI [2]: +8.9; BEI [2]: 19.7
> 1000	5.38 ± 0.01	55.4 ± 9.86	25.6	Cc1cc(C(=N)NO)ccc1O [VIS1202]		pKa [3, 7]: 8.97 ± 0.03
> 1000	5.38 ± 0.01	54.9 ± 8.2	25.7	Cc1cc(O)ccc1C(=N)NO [VIS1203]		pKa [3, 7]: 9.17 ± 0.02
148 ± 71.3	5.3 ± 0.01	70.8 ± 12.7	19.6	N=C(NO)c1ccccc1-c1ccccc1 [VIS1204]		delta increment of BEI [2]: +1.5; BEI [2]: 18.1

Continued, molecule first:

SMILES	Kd [2, 5] [µM]	pKa [3, 6]	Kd [2, 8] [µM]	BEI (pH 6.2) [2]	Single-point binding result (in words) [1]	also measured
NCCSc1c[nH]c2ccccc12 [VIS284]	> 250				hit compounds	
NCc1n[nH]c(=O)c2ccccc12 [VIS285]	> 250				at the borderline of the definition criterion	Binder (single-point binder flag) [1]: x/o
O=C(NCc1ccc(F)cc1)c1ccc2nc[nH]c2c1 [VIS545]	> 250				at the borderline of the definition criterion	Binder (single-point binder flag) [1]: x/o
O=C(O)c1cccc2c1-c1ccccc1OC2 [VIS877]	> 250					
C[C@]1(O)CC[C@@H]1N1CC2CCCCC2C1 (some centres unmarked) [VIS1079]					at the borderline of the definition criterion	Binder (single-point binder flag) [1]: x/o; Kd ([2]; Kd ± c.v., pH 7.2, n.3): > 250 µM
Nc1[nH]ncc1-c1ccc(F)cc1F [VIS32926]	> 250				at the borderline of the definition criterion	Binder (single-point binder flag) [1]: x/o
NC(=NO)c1ccccc1 [benzamidoxime]						pKa2 ([4]; oxime hydroxyl group): 12.36; pKa1 ([4]; protonated oxime nitrogen): 4.85
